According to the supplement of paper PMC13380429:

Key:
Conditions in all cases: 72 h
Calu-3 [1] = experiment: relative viability EC50 (midpoint between 100% and the lowest measured viability); higher = less toxic
Vero E6 [2] = experiment: as above
Caco-2 [3] = experiment: as above
U2OS [4] = experiment: as above
HepG2 [5] = experiment: as above
Calu-3 [6] = experiment: drug sensitivity score (DSS) for viability; higher = more toxic; extreme values may be limits of the assay
Vero E6 [7] = experiment: as above
Caco-2 [8] = experiment: as above
U2OS [9] = experiment: as above
HepG2 [10] = experiment: as above
Calu-3 [11] = experiment: cell viability relative to DMSO; higher = less toxic
Vero E6 [12] = experiment: as above
Caco-2 [13] = experiment: as above
U2OS [14] = experiment: as above
HepG2 [15] = experiment: as above

Structure (SMILES)	relative viability EC50 (Calu-3 [1])	relative viability EC50 (Vero E6 [2])	relative viability EC50 (Caco-2 [3])	relative viability EC50 (U2OS [4])	relative viability EC50 (HepG2 [5])	drug sensitivity score (Calu-3 [6])	drug sensitivity score (Vero E6 [7])	drug sensitivity score (Caco-2 [8])	drug sensitivity score (U2OS [9])	drug sensitivity score (HepG2 [10])	cell viability (Calu-3 [11]; 1 nM)	cell viability (Calu-3 [11]; 10 nM)	cell viability (Calu-3 [11]; 100 nM)	cell viability (Calu-3 [11]; 1000 nM)	cell viability (Calu-3 [11]; 10000 nM)	cell viability (Vero E6 [12]; 1 nM)	cell viability (Vero E6 [12]; 10 nM)	cell viability (Vero E6 [12]; 100 nM)	cell viability (Vero E6 [12]; 1000 nM)	cell viability (Vero E6 [12]; 10000 nM)	cell viability (Caco-2 [13]; 1 nM)	cell viability (Caco-2 [13]; 10 nM)	cell viability (Caco-2 [13]; 100 nM)	cell viability (Caco-2 [13]; 1000 nM)	cell viability (Caco-2 [13]; 10000 nM)	cell viability (U2OS [14]; 1 nM)	cell viability (U2OS [14]; 10 nM)	cell viability (U2OS [14]; 100 nM)	cell viability (U2OS [14]; 1000 nM)	cell viability (U2OS [14]; 10000 nM)	cell viability (HepG2 [15]; 1 nM)	cell viability (HepG2 [15]; 10 nM)	cell viability (HepG2 [15]; 100 nM)	cell viability (HepG2 [15]; 1000 nM)	cell viability (HepG2 [15]; 10000 nM)
O=C(O)/C=C1\CCCc2ccccc2[C@H]1O (racemic) [NCS-382]	> 10 µM	> 10 µM	> 10 µM	> 10 µM	> 10 µM	0	0	0	0	0.1	93.4%	95.3%	99.3%	95.5%	101%	104%	97.2%	103%	99.1%	101%	98.6%	99.3%	91.8%	97%	88.7%	96.7%	102%	96%	102%	97.2%	108%	96.5%	102%	99.1%	87.2%
OC[C@H]1NC[C@@H](O)[C@@H](O)[C@@H]1O [1-deoxymannojirimycin]	> 10 µM	> 10 µM	> 10 µM	> 10 µM	> 10 µM	0	0	0	0	0	106%	96.8%	97%	95.4%	90.8%	99.1%	93%	98.2%	96.8%	107%	95.3%	96.8%	98.2%	97%	104%	96.8%	102%	95.8%	100%	108%	109%	96.2%	94.5%	93.1%	97.7%
CCCN(C/C=C/I)C1CCc2cccc(O)c2C1 (stereo not given) [8-hydroxy-PIPAT]	> 10 µM	> 10 µM	> 10 µM	> 10 µM	> 10 µM	0	0	0	0	0.2	101%	101%	112%	103%	99.5%	97.7%	99.7%	100%	99.3%	92.9%	107%	95.3%	100%	93.8%	101%	103%	100%	102%	97.6%	97.8%	101%	105%	111%	104%	83.4%
C#Cc1cccc2c1c(C(=O)c1ccc(Cn3c(C)nc4cnccc43)c(F)c1)cn2C(=O)N(C)C [ABT-491]	> 10 µM	> 10 µM	> 10 µM	> 10 µM	> 10 µM	0	0	0	0	0	97.2%	102%	100%	106%	106%	103%	97.1%	97.1%	98.4%	95.5%	101%	86.1%	91.1%	91.3%	93.3%	99.7%	98.3%	96.6%	98.5%	94.7%	102%	110%	95.6%	100%	91.4%
c1ccc(C(NCCNC(c2ccccc2)c2ccccc2)c2ccccc2)cc1 [AMN-082]	> 10 µM	> 10 µM	> 10 µM	> 10 µM	> 10 µM	0	0	0	0	0.2	99%	97.7%	96.9%	95.7%	92.2%	104%	95%	95%	93.6%	114%	98.9%	104%	96.5%	94.8%	94.8%	96.5%	97.8%	96.7%	105%	93.8%	103%	92.4%	108%	98.9%	87.4%
COc1cc(C(=O)c2c(C)oc3c(O)c(OC)ccc23)cc(OC)c1OC [BNC105]	0.0078 µM	< 0.001 µM	< 0.001 µM	0.0073 µM	0.0055 µM	27	38.3	30.3	31.5	24.7	106%	54.6%	33.7%	39.2%	30.9%	34.9%	22.7%	22.8%	27.9%	30.4%	62.8%	39.6%	41.4%	37.9%	41.1%	100%	44.7%	20.9%	19.3%	19.7%	86.2%	60.4%	42.6%	35.7%	38%
Nc1n[nH]c2nc3ccccc3nc12 [CDK1-5-inhibitor]	> 10 µM	> 10 µM	> 10 µM	> 10 µM	> 10 µM	1.4	0	0	0	0	98.3%	102%	97.1%	86%	90.6%	99.8%	96.1%	100%	100%	97.4%	101%	105%	97.8%	96.2%	104%	86.3%	95.2%	95.9%	100%	102%	102%	98.6%	107%	101%	104%
